Test: collision cross section in nitrogen (drift tube, single-field); higher = larger gas-phase ion size
[1] = ion type: [M+H], ion source: APCI, ion mode: Positive
[2] = ion type: [M+H], ion source: ESI, ion mode: Positive
[3] = ion type: [M+Na], ion source: ESI, ion mode: Positive
[4] = ion type: [M-H], ion source: ESI, ion mode: Negative
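Also: chemical standards at 10 µM analysed by drift tube IMS-QTOF MS in about 3.95 torr nitrogen, mean of duplicate injections differing ≤1%, mass error below 10 ppm.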

Compound	collision cross section in nitrogen [1]	collision cross section in nitrogen [2]	collision cross section in nitrogen [3]	collision cross section in nitrogen [4]	collision cross section in nitrogen (ion source: APCI, ion mode: Positive, ion type: [M]+ (permanent cation))	collision cross section in nitrogen (ion source: ESI, ion mode: Positive, ion type: [M]+ (permanent cation))	collision cross section in nitrogen (ion type: [M+], ion source: APCI, ion mode: Positive)
CCOc1cccc(-n2cc(C(=O)N3CCN(c4cc(C(=O)O)c5ccccc5c4)CC3)nc2-c2ccc(C)cc2)c1	228.4 Å²	228.8 Å²	233.2 Å²	232.5 Å²			
CC[C@H]1CC[C@H](NCc2cc3c(cc2OC)[C@H]2C[C@H]2C(=O)N3C)[C@H](c2ccccc2)N1	208.4 Å²	208.2 Å²	214.4 Å²				
Cc1cc(F)ccc1-c1cc(N2CC[C@@H](O)[C@H]2CO)ncc1N(C)C(=O)C(C)(C)c1cc(C(F)(F)F)cc(C(F)(F)F)c1	245.7 Å²	244.6 Å²	246.4 Å²	232.7 Å²			
CN(C[C@@H](CC[N+]12CCC(C3CCCCC3)(CC1)CC2)c1ccc(Cl)c(Cl)c1)C(=O)c1cc(C(F)(F)F)cc(C(F)(F)F)c1					260.7 Å²	262.3 Å²	
CN1C(=O)N(c2ccccc2Br)Cc2cnc(Nc3ccc4c(c3)OCC(CO)O4)nc21 (stereo not given)	219.5 Å²	218.9 Å²	219.1 Å²	220.2 Å²			215.4 Å²
Cc1ccccc1N=Nc1ccc(NC(=O)c2ccnn2C)c(C)c1	189.6 Å²	189.1 Å²	200.2 Å²	190.8 Å²			
CNC(=O)[C@H]1O[C@@H](n2cnc3c(NCc4cc(Cl)ccc4OCc4cc(C)no4)ncnc32)[C@H](O)[C@@H]1N	216.1 Å²	216.2 Å²	223.6 Å²				
COc1ccc(OC(F)(F)F)cc1CN[C@H]1CCCN[C@H]1c1ccccc1	182.7 Å²	183.3 Å²	190.7 Å²				
COc1cc(C=O)cc2c1[C@H](COC(N)=O)[C@]1(OC(C)=O)ON2C[C@H]2[C@@H]1N2C(C)=O	191.3 Å²	192.1 Å²	190.5 Å²				
Cc1nc(C)nc(N2C[C@@H](C)N(c3ccnc([C@@H](C)O)n3)[C@@H](C)C2)n1	191.2 Å²	190.4 Å²	183.4 Å²	192.5 Å²			
Cc1cc(CCN2CCN(c3nsc4ccccc34)CC2)cc2c1NC(=O)CC2(C)C	202.2 Å²	202.4 Å²	205.3 Å²	209.3 Å²			
Cc1nccn1-c1ccc(Sc2cccc(C3(C(N)=O)CCOCC3)c2)cc1	196.7 Å²	196.8 Å²	188.1 Å²				
Clc1cc(Cl)c2c(c1)N=C1CCCCCN1C2	158.5 Å²	159.3 Å²					
Cn1c(=O)cc(Oc2ccc(F)cc2F)c2cnc(NCC(C)(C)O)nc21	192.8 Å²	192.4 Å²	205.6 Å²	193.4 Å²			
O=C(Nc1ccc2[nH]ccc2c1)c1cc2cc(F)ccc2n1Cc1cccc(F)c1	195.9 Å²	195.7 Å²	202.1 Å²	193.8 Å²			
N=C(N)NC(=N)NCCc1ccccc1	145.7 Å²	146.3 Å²	148.3 Å²				
NC(=O)c1nc(-c2cccc(-c3cc(F)ccc3OCC(F)(F)C(F)(F)F)c2)n[nH]1	189.4 Å²	189.1 Å²	190.9 Å²	195.5 Å²			
Nc1cc2c3c(c1)C(c1ccccc1)=N[C@@H](NC(=O)c1cccnc1)C(=O)N3CC2	201.2 Å²	200.1 Å²	209.2 Å²				
O=C(N[C@H]1CN2CCC1CC2)c1ccc2c(c1)OCCO2	175.9 Å²	175.7 Å²		177.1 Å²			
O=C1c2ccccc2C(=O)N1CCc1noc(-c2ccc(CN3CCCCCC3)s2)n1	214.3 Å²	213.7 Å²	213.7 Å²				
O=C(O)c1cccc(N(Cc2cccnc2)c2ccc(OC(F)F)c(OC(F)F)c2)c1	201.3 Å²	200.4 Å²	205.9 Å²	202.6 Å²			
OC(Cc1ccccc1Cl)(Cn1cncn1)C1(Cl)CC1 (stereo not given)	167.3 Å²	167 Å²	184.1 Å²				

From the supplement of paper PMC12317010
